Laboratory results reported in patent US9511052B2, “Mineralocorticoid receptor antagonists” (Merck Sharp & Dohme Corp., priority 2012, dated 2016).

Key:
[1] = Metabolic stability in liver microsome and hepatocytes of multiple animal species (overall statement); format: in vitro ADME
[2] = molecular target: T1, full-length human Mineralocorticoid Receptor (MR) (Homo sapiens, UniProt P08235); test: human MR NH Pro assay (PathHunter Protein:Protein interaction assay), MR antagonism; format: cell-based; settings: IP = inflection point of the dose-response curve; CHO-K1 cells overexpressing human MR, aldosterone about 0.3 nM to about 1 nM, 6 hours at 37° C.
T1 construct: host or cells: PathHunter CHO-K1 MR cells
T1 sequence (P08235 1-984): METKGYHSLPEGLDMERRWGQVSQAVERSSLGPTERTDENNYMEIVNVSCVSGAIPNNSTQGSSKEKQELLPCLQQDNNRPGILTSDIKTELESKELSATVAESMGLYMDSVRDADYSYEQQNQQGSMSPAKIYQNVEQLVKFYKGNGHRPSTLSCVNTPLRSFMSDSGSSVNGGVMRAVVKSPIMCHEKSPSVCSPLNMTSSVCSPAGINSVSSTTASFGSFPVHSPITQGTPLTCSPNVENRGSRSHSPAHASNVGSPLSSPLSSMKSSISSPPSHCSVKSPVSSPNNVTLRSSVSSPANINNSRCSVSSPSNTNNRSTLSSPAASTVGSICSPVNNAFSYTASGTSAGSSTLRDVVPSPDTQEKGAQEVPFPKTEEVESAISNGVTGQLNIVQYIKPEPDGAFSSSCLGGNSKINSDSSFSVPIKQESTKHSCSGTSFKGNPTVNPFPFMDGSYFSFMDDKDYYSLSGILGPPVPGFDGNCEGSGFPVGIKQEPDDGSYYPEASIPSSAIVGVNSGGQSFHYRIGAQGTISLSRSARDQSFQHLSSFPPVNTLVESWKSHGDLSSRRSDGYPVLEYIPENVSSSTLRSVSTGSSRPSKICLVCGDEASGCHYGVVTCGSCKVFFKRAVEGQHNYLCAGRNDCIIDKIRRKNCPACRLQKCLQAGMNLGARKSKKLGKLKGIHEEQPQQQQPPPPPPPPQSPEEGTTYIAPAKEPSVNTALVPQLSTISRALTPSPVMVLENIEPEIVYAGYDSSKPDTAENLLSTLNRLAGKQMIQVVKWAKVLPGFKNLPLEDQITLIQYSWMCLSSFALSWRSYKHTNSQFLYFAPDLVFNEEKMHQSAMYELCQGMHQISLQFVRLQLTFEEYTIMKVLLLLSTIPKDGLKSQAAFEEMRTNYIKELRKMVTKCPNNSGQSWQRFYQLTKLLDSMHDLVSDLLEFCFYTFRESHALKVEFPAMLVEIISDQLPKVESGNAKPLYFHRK
Outline: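 PathHunter CHO-K1 MR cells (10K/well) plated overnight at 37°C, 5% CO2, then exposed 6 h to a 10-point titration starting at 36.7 μM final, in duplicate, DMSO <1%. MR–coactivator peptide interaction read by luminescence after 1 h with DiscoveRx detection reagent at room temperature.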

PK profile in rats = format: in vivo, rat; settings: for bioavailability / clearance / half-life: rat, in vivo; for bioavailability: oral
[3] = Liver microsome stability, rhesus monkey; format: in vitro ADME; settings: liver microsomes, read-out: Liver Microsome Stability (t1/2)
[4] = Hepatocyte stability, dog; format: in vitro ADME; settings: hepatocytes, read-out: Hepatocyte Stability (t1/2)
[5] = Liver microsome stability, human; format: in vitro ADME; settings: for Liver Microsome Stability (t1/2): Human; for half-life: human, liver microsomes, read-out: Liver Microsome Stability (t1/2)
[6] = Liver microsome stability, dog; format: in vitro ADME; settings: liver microsomes, read-out: Liver Microsome Stability (t1/2)
[7] = Hepatocyte stability, human; format: in vitro ADME; settings: human, hepatocytes; read-out: Hepatocyte Stability (t1/2)
[8] = Hepatocyte stability, rat; format: in vitro ADME; settings: hepatocytes, read-out: Hepatocyte Stability (t1/2)
[9] = Hepatocyte stability, rhesus monkey; format: in vitro ADME; settings: hepatocytes, read-out: Hepatocyte Stability (t1/2)
[10] = Liver microsome stability, rat; format: in vitro ADME; settings: liver microsomes, read-out: Liver Microsome Stability (t1/2)

metabolic stability in liver microsome and hepatocytes of multiple animal species (in words) [1]	IC50 [2]	Cl (PK profile in rats)	PK profile in rats (in words) (PK profile in rats)	t1/2 (PK profile in rats)	AUCN po (PK profile in rats)	bioavailability (PK profile in rats)	half-life [3]	half-life [4]	Liver Microsome Stability (t1/2) [5]	half-life [6]	half-life [7]	half-life [8]	half-life [9]	half-life [10]	clearance (PK profile in rats)	half-life (PK profile in rats)	half-life [5]	SMILES
good metabolic stability	4 nM	24 mL/min/kg	good PK profile	5.3 h	1.3 µM·kg·h/mg	76%	1.02 h	0.8 h	1.2 h	1.08 h	> 1.5 h	> 1.5 h	> 1.5 h	1.02 h	–	–	–	CCC(O)C(CC)(c1ccc(C(F)(F)F)cc1)n1ncc2c(NS(C)(=O)=O)cccc21 (single isomer, unassigned) [Compound 9, N-(1-(4-hydroxy-3-(4-(trifluoromethyl)phenyl)hexan-3-yl)-1H-indazol-4-yl)methanesulfonamide]
excellent metabolic stability	51 nM	–	good PK profile	–	4.0 µM·kg·h/mg	92%	1.12 h	1.22 h	–	2.13 h	1.5 h	> 1.5 h	> 1.5 h	3.9 h	8.4 mL/min/kg	5.2 h	2.6 h	CCC(c1ccc(C(F)(F)F)cc1)(C(C)O)n1ncc2c(NS(C)(=O)=O)cc(F)cc21 (single isomer, unassigned) [Compound 31, N-(6-fluoro-1-(2-hydroxy-3-(4-(trifluoromethyl)phenyl)pentan-3-yl)-1H-indazol-4-yl)methanesulfonamide]
good metabolic stability	76 nM	–	good PK profile	–	1.9 µM·kg·h/mg	31%	1.53 h	> 1.5 h	–	2.25 h	> 1.5 h	> 1.5 h	> 1.5 h	1.62 h	6.2 mL/min/kg	4.2 h	2.3 h	CS(=O)(=O)Nc1cccc2c1cnn2C(CC(F)F)(C(N)=O)c1ccc(C(F)(F)F)cc1 (single isomer, unassigned) [Compound 46, 4,4-difluoro-2-(4-(methylsulfonamido)-1H-indazol-1-yl)-2-(4-(trifluoromethyl)phenyl)butanamide]
good metabolic stability	11 nM	3.8 mL/min/kg	good PK profile	9.9 h	8.9 µM·kg·h/mg	77%	0.7 h	> 1.5 h	1.03 h	2.7 h	> 1.5 h	> 1.5 h	> 1.5 h	2.57 h	–	–	–	CCC(c1ccc(C(F)(F)F)cc1)(C(O)C(F)F)n1ncc2c(NS(C)(=O)=O)cccc21 (single isomer, unassigned) [Compound 47, N-(1-(1,1-difluoro-2-hydroxy-3-(4-(trifluoromethyl)phenyl)pentan-3-yl)-1H-indazol-4-yl)methanesulfonamide]
